Legend:
Type in all cases: functional
[1] = system: SK-MEL-5; assay: Cytotoxicity against Homo sapiens (human) SK-MEL-5 cells after 48 hr by sulforhodamine B assay; settings: SK-MEL-5, 48 h
[2] = system: KM12; assay: Cytotoxicity against Homo sapiens (human) KM12 cells after 48 hr by sulforhodamine B assay; settings: KM12, 48 h
[3] = Cytotoxicity against Homo sapiens (human) […] cells after 48 hr by sulforhodamine B assay
[4] = system: DU-145; assay: Cytotoxicity against Homo sapiens (human) DU145 cells after 48 hr by sulforhodamine B assay; settings: DU-145, 48 h
[5] = system: SNB-75; assay: Cytotoxicity against Homo sapiens (human) SNB75 cells after 48 hr by sulforhodamine B assay; settings: SNB-75, 48 h
[6] = system: T47D; assay: Cytotoxicity against Homo sapiens (human) T47D cells after 48 hr by sulforhodamine B assay
[7] = system: COLO 205; assay: Cytotoxicity against Homo sapiens (human) COLO205 cells after 48 hr by sulforhodamine B assay; settings: COLO 205, 48 h
[8] = system: MDA-MB-435; assay: Cytotoxicity against Homo sapiens (human) MDA-MB-435 cells after 48 hr by sulforhodamine B assay; settings: MDA-MB-435, 48 h
[9] = system: Hs-578T; assay: Cytotoxicity against Homo sapiens (human) Hs 578T cells after 48 hr by sulforhodamine B assay
[10] = system: NCI-H23; assay: Cytotoxicity against Homo sapiens (human) NCI-H23 cells after 48 hr by sulforhodamine B assay; settings: NCI-H23, 48 h
[11] = system: SW-620; assay: Cytotoxicity against Homo sapiens (human) SW620 cells after 48 hr by sulforhodamine B assay; settings: SW-620, 48 h
[12] = system: LOX IMVI; assay: Anticancer activity in Homo sapiens (human) LOXIMVI cells assessed as cell growth at 10^-5 M after 48 hr by SRB assay; settings: read-out: Activity
[13] = system: SF-295; assay: Cytotoxicity against Homo sapiens (human) SF295 cells after 48 hr by sulforhodamine B assay; settings: SF-295, 48 h
[14] = system: UO-31; assay: Cytotoxicity against Homo sapiens (human) UO31 cells after 48 hr by sulforhodamine B assay; settings: UO-31, 48 h
[15] = system: ACHN; assay: Cytotoxicity against Homo sapiens (human) ACHN cells after 48 hr by sulforhodamine B assay
[16] = system: PC-3; assay: Cytotoxicity against Homo sapiens (human) PC3 cells after 48 hr by sulforhodamine B assay; settings: PC-3, 48 h
[17] = system: SR; assay: Cytotoxicity against Homo sapiens (human) SR cells after 48 hr by sulforhodamine B assay
[18] = system: 786-0; assay: Cytotoxicity against Homo sapiens (human) 786-0 cells after 48 hr by sulforhodamine B assay; settings: 786-0, 48 h
[19] = system: CAKI-1; assay: Cytotoxicity against Homo sapiens (human) Caki1 cells after 48 hr by sulforhodamine B assay; settings: CAKI-1, 48 h
[20] = system: SK-MEL-2; assay: Cytotoxicity against Homo sapiens (human) SK-MEL-2 cells after 48 hr by sulforhodamine B assay; settings: SK-MEL-2, 48 h
[21] = system: U-251; assay: Cytotoxicity against Homo sapiens (human) U251 cells after 48 hr by sulforhodamine B assay; settings: U-251, 48 h
[22] = system: NCI-H522; assay: Cytotoxicity against Homo sapiens (human) NCI-H522 cells after 48 hr by sulforhodamine B assay; settings: NCI-H522, 48 h
[23] = system: NCI-H322M; assay: Cytotoxicity against Homo sapiens (human) NCI-H322M cells after 48 hr by sulforhodamine B assay
[24] = system: IGROV-1; assay: Cytotoxicity against Homo sapiens (human) IGROV1 cells after 48 hr by sulforhodamine B assay; settings: IGROV-1, 48 h
[25] = system: HOP-62; assay: Cytotoxicity against Homo sapiens (human) HOP62 cells after 48 hr by sulforhodamine B assay; settings: HOP-62, 48 h
[26] = system: MCF7; assay: Cytotoxicity against Homo sapiens (human) MCF7 cells after 48 hr by sulforhodamine B assay; settings: MCF7, 48 h
[27] = system: UACC-62; assay: Cytotoxicity against Homo sapiens (human) UACC62 cells after 48 hr by sulforhodamine B assay; settings: UACC-62, 48 h
[28] = system: NCI-H460; assay: Cytotoxicity against Homo sapiens (human) NCI-H460 cells after 48 hr by sulforhodamine B assay; settings: NCI-H460, 48 h
[29] = system: HT-29; assay: Cytotoxicity against Homo sapiens (human) HT-29 cells after 48 hr by sulforhodamine B assay; settings: HT-29, 48 h

## COc1ccc(-c2cs/c(=N\NC(=O)c3ccc(O)cc3)n2-c2ccc(OC)cc2OC)cc1
[1]
  GI50: 5.37 µM
  LC50: 52.5 µM
[1]; read-out: pTGI (converted)
  TGI: 19.5 µM
[2]
  GI50: 2.63 µM
  LC50: 87.1 µM
[2]; read-out: pTGI (converted)
  TGI: 8.51 µM
[3]
  GI50: 3.8 µM
  LC50: > 100 µM
[3]; read-out: pTGI (converted)
  TGI: > 100 µM
[4]
  GI50: 8.13 µM
  LC50: > 100 µM
[4]; read-out: pTGI (converted)
  TGI: 40.7 µM
[5]
  GI50: 22.9 µM
  LC50: > 100 µM
[5]; read-out: pTGI (converted)
  TGI: > 100 µM
[6]
  GI50: 5.13 µM
  LC50: > 100 µM
[6]; read-out: pTGI (converted)
  TGI: 79.4 µM
[7]
  GI50: 4.47 µM
  LC50: 79.4 µM
[7]; read-out: pTGI (converted)
  TGI: 20.9 µM
[8]
  GI50: 2.88 µM
  LC50: > 100 µM
[8]; read-out: pTGI (converted)
  TGI: 22.9 µM
[9]
  GI50: 6.92 µM
  LC50: > 100 µM
[9]; read-out: pTGI (converted)
  TGI: 53.7 µM
[10]
  GI50: 11 µM
  LC50: > 100 µM
[10]; read-out: pTGI (converted)
  TGI: > 100 µM
[11]
  GI50: 4.37 µM
  LC50: > 100 µM
[11]; read-out: pTGI (converted)
  TGI: 43.7 µM
[12]
  growth at 10 µM: 58.3%
[13]
  GI50: 2.82 µM
  LC50: > 100 µM
[13]; read-out: pTGI (converted)
  TGI: 9.77 µM
[14]
  GI50: 4.68 µM
  LC50: > 100 µM
[14]; read-out: pTGI
  TGI: > 100 µM
[15]
  GI50: 4.79 µM
  LC50: > 100 µM
[15]; read-out: pTGI (converted)
  TGI: > 100 µM
[16]
  GI50: 3.39 µM
  LC50: > 100 µM
[16]; read-out: pTGI (converted)
  TGI: > 100 µM
[17]
  GI50: 2 µM
  LC50: > 100 µM
[17]; read-out: pTGI
  TGI: > 100 µM
[18]
  GI50: 4.07 µM
  LC50: > 100 µM
[18]; read-out: pTGI (converted)
  TGI: 26.3 µM
[19]
  GI50: 3.31 µM
  LC50: > 100 µM
[19]; read-out: pTGI (converted)
  TGI: 52.5 µM
[20]
  GI50: 4.9 µM
  LC50: > 100 µM
[20]; read-out: pTGI (converted)
  TGI: 72.4 µM
[21]
  GI50: 4.47 µM
  LC50: 93.3 µM
[21]; read-out: pTGI (converted)
  TGI: 89.1 µM
[22]
  GI50: 2.57 µM
  LC50: > 100 µM
[22]; read-out: pTGI (converted)
  TGI: 20 µM
[23]
  GI50: 22.9 µM
  LC50: > 100 µM
[23]; read-out: pTGI (converted)
  TGI: > 100 µM
[24]
  GI50: 7.94 µM
  LC50: > 100 µM
[24]; read-out: pTGI (converted)
  TGI: > 100 µM
[25]
  GI50: 2.95 µM
  LC50: 49 µM
[25]; read-out: pTGI (converted)
  TGI: 7.59 µM
[26]
  GI50: 3.72 µM
  LC50: > 100 µM
[26]; read-out: pTGI (converted)
  TGI: 28.8 µM
[27]
  GI50: 4.47 µM
  LC50: 85.1 µM
[27]; read-out: pTGI (converted)
  TGI: 22.9 µM
[28]
  GI50: 3.02 µM
  LC50: > 100 µM
[28]; read-out: pTGI (converted)
  TGI: 13.5 µM
[29]
  GI50: 3.63 µM
  LC50: > 100 µM
[29]; read-out: pTGI (converted)
  TGI: 17 µM

Reference: ChEMBL document CHEMBL3046521, “Synthesis and antitumor activity of (4-hydroxyphenyl)[5-substituted alkyl/aryl)-2-thioxo-1,3,4-thiadiazol-3-yl]methanone and [(3,4-disubstituted)-1,3-thiazol-2ylidene]-4-hydroxybenzohydrazide” (2011)
